Experimental data as given in publication PMC9851200, “Multiparameter phenotypic screening for endogenous TFEB and TFE3 translocation identifies novel chemical series modulating lysosome function” (Autophagy, 2022).
Entries after “also recorded” stand apart in the source; their conditions may differ.

Key:
SH-SY5Y cells [1] = assay: AK (adenylate kinase) release ToxiLight cytotoxicity assay; details: for AK: PKIS2 primary screening
Experimental: Total cell lysis with 5 µL 5% Triton-X 100 (Sigma-Aldrich, T8787) is used as a positive control for the assay and toxicity is expressed as a percentage of luminescence under DMSO conditions.

SH-SY5Y cells [2] = assay: Nuclear count from microscopy images (cellular growth and toxicity); details: PKIS2 primary screening
endogenous TFE3 = assay: TFE3 nuclear translocation, immunocytochemistry high-content imaging; assay type: cell-based; details: for TFE3 %: PKIS2 primary screening
endogenous TFEB = assay: TFEB nuclear translocation, immunocytochemistry high-content imaging; assay type: cell-based; details: for TFEB %: PKIS2 primary screening
SH-SY5Y cells [3] = details: for DQ Intensity / DQ Spot: PKIS2 primary screening; for DQ Intensity: DQ Red BSA intensity; for DQ Spot: DQ Red BSA spot count
Text: The PKIS2 Library was supplied by The Structural Genomics Consortium at the University of North Carolina at Chapel Hill.

SH-SY5Y cells [4] = assay: Chemotype enrichment analysis of PKIS2 primary screen hit categories; details: PKIS2 primary screening, hit category

Compound	AK (SH-SY5Y cells [1])	Nuclear Count (SH-SY5Y cells [2])	TFE3 % (endogenous TFE3)	TFEB % (endogenous TFEB)	DQ Intensity (SH-SY5Y cells [3])	DQ Spot (SH-SY5Y cells [3])	Outcome (SH-SY5Y cells [4])	Cellular toxicity (AK release and nuclear count, in words) (SH-SY5Y cells [1]; SH-SY5Y, 24 h treatment)	TFE3 translocation (in words) (endogenous TFE3; SH-SY5Y, 24 h treatment)	TFEB translocation (in words) (endogenous TFEB; SH-SY5Y, 24 h treatment)	DQ Red BSA spot count / active lysosome count (in words) (SH-SY5Y cells [3]; SH-SY5Y, 24 h treatment)
FC(F)(F)c1ccc(-c2ncn(CCCN3CCOCC3)c2-c2ccncc2)cc1 [UNC10225425A]	109.44	88.34	9.69%	5.42%	74.41	77.10	LYSO TOXIC	–	–	–	–
COc1cccc(-c2cc(-c3c[nH]nc3-c3ccccn3)ccn2)c1 [UNC10225448A]	109.46	116.22	7.93%	6.19%	60.35	69.14	LYSO TOXIC	–	–	–	–
CN1CCN(Cc2cccc(-c3ccc4c(Nc5ccc(Oc6ccccc6)cc5)ccnc4c3)c2)CC1 [UNC10225484A, reference compound]	84.86	88.62	42.01%	9.01%	129.44	68.80	LYSO TOXIC	no indication of cellular toxicity	some TFEB and TFE3 translocation; also recorded: modest TFEB and 3 translocation at 2 µM	some TFEB and TFE3 translocation; also recorded: modest TFEB and 3 translocation at 2 µM	reduction in active lysosome spots; also recorded: correlated drop in DQ Red BSA spot count
COc1ccc(-c2nc3n(c2-c2ccncc2)CCC3)cc1 [UNC10225334A]	77.50	82.13	11.25%	5.64%	120.06	119.57	DQ Only	–	–	–	–
Cl.Cl.NC(CNC(=O)c1cc(Br)c(-c2ccnc3[nH]ccc23)s1)c1ccccc1 (centres unmarked) [UNC10225176A]	110.45	58.33	37.70%	17.27%	298.60	72.64	TFEB/3 + DQ Int	–	–	–	–
Cl.Nc1ncnc2occ(-c3ccc(NC(=O)Nc4cc(C(F)(F)F)ccc4F)cc3)c12 [UNC10112792A]	84.72	92.62	17.19%	5.26%	73.11	78.83	LYSO TOXIC	–	–	–	–
c1ccc(-c2ccnc3[nH]ccc23)cc1 [UNC10225337A]	289.20	120.86	8.32%	6.67%	103.32	96.87	TOXIC	–	–	–	–
Cc1ccc(C(=O)Nc2ccc(Nc3ccnc4cc(-c5nccs5)ccc34)cc2O)cc1.Cl [UNC10225432A]	74.29	89.90	56.52%	8.56%	38.26	36.88	LYSO TOXIC	–	–	–	–
Cc1ccc(C(=O)Nc2ccc(Nc3ccnc4cc(-c5ccccn5)ccc34)cc2O)cc1.Cl [UNC10225182A]	82.72	71.22	92.07%	30.37%	19.25	15.81	LYSO TOXIC	–	–	–	–
c1ccc(Oc2ccc(Nc3ccnc4cc(-c5ccc(CN6CCCCC6)o5)ccc34)cc2)nc1 [UNC10225094A]	71.77	127.56	31.67%	15.03%	89.29	45.68	LYSO TOXIC	–	–	–	–
CC(=O)Nc1ccc(COc2ccc(Nc3ccnc4cc(-c5ccccn5)ccc34)cc2)cc1.Cl [UNC10225390A]	71.40	89.28	50.24%	19.19%	42.39	42.67	LYSO TOXIC	–	–	–	–
Nc1ncc(-c2ccc3nccc(-c4ccncc4)c3c2)cc1S(=O)(=O)N1CCCCC1 [UNC10225117A]	150.20	82.78	4.68%	3.14%	254.18	83.51	TOXIC	–	–	–	–
CN1C(=O)C(Nc2ccccc2)=C(c2ccccc2)C1=O [UNC10225242A]	287.85	117.96	13.56%	6.14%	102.22	99.91	TOXIC	–	–	–	–
N#Cc1cnc2cc(-c3cnc(CNCCN4CCOCC4)s3)ccc2c1Nc1ccc(Oc2ccccc2)cc1 [UNC10225079A]	71.03	110.49	6.45%	5.31%	48.97	51.66	LYSO TOXIC	–	–	–	–
COc1cc2nccc(Nc3ccc(NC(=O)c4ccc(C)cc4)c(O)c3)c2cc1OC.Cl [UNC10225013A]	100.53	63.58	46.99%	33.18%	86.65	65.59	LYSO TOXIC	–	–	–	–
c1ccc(Oc2ccc(Nc3ccnc4ccc(-c5ccccn5)cc34)cc2)cc1 [UNC10225215A]	106.19	111.99	13.98%	9.01%	94.87	78.82	LYSO TOXIC	–	–	–	–
Cl.c1ccc(-c2ccc3c(Nc4ccc5[nH]ccc5c4)ccnc3c2)nc1 [UNC10225345A]	157.00	89.15	38.32%	8.10%	44.66	42.49	TOXIC	–	–	–	–
c1ccc(Oc2ccc(Nc3ccnc4cc(-c5ccc(CNCCN6CCOCC6)o5)ccc34)cc2)nc1 [UNC10225054A]	119.39	92.65	33.41%	22.56%	95.11	49.97	LYSO TOXIC	–	–	–	–
Cc1ccn2nc(-c3ccc(F)cc3)c(-c3ccncc3)c2c1.Cl [UNC10224989A]	121.47	114.75	6.03%	29.24%	96.51	106.96	TFEB	–	–	–	–
COc1cc2nccc(Nc3ccc(Oc4ccccc4)cc3)c2cc1OC.Cl [UNC10225483A]	74.22	95.56	50.12%	23.88%	58.49	52.29	LYSO TOXIC	–	–	–	–
COc1cc2nccc(Nc3cccc(Oc4ccccc4)c3)c2cc1OC.Cl [UNC10225170A]	71.46	91.34	29.93%	18.56%	93.52	79.85	TFEB/TFE3	–	–	–	–
C=CC(=O)Nc1cc2c(Nc3ccc(F)c(Cl)c3)ncnc2cc1OCCCN1CCOCC1 [UNC10126563B]	149.52	114.57	16.19%	7.79%	67.23	74.22	TOXIC	–	–	–	–
